Legend:
Type in all cases: biochemical, Medicago truncatula
[1] = system: MtIOMT1; experiment: OMT assays with purified recombinant MtIOMT1 (relative activity with 14C-SAM); details: for Relative activity, MtIOMT1: 50 μM S-adenosyl methionine, 100 μM acceptor substrate, most converted substrate = 100%
Excerpt: Cloning of MtIOMT5 (corresponding to TC 100926, TIGR MtGI v.8) was as described previously (Liu et al., 2005). To obtain a full-length cDNA for MtIOMT2, specific primers designed based upon the M. truncatula genomic sequence were used to amplify the MtIOMT2 coding sequence from M. truncatula root cDNA. The amplified product was cloned into the pGEM®-T easy vector (Promega, Madison Wis.) and sequenced to confirm its identity. MtIOMTs were cloned into the pET28a vector (EMD Biosciences, Inc., San Diego, Calif.) using PCR-based amplification with primers designed to introduce EcoRI and XhoI restriction sites; BamHI and XhoI sites were used for cloning MtIOMT6 due to the presence of an internal EcoRI site in this particular cDNA. Because the EST for MtIOMT8 was missing a start codon, the primer designed to clone MtIOMT8 into pET28a contained an additional 2-nucleotide insertion to generate an ATG start site. All MtIOMTs were expressed as translational fusions to an N-terminal His-tag. Expression of MtIOMTs in E. coli BL21(DE3) and purification by Ni^2+-NTA chromatography were as described (Zubieta et al., 2001). Proteins were dialyzed against 20 mM Tris pH 8.0, 100 mM NaCl, 10% (v/v) glycerol, and 14 mM β-mercaptoethanol. Protein concentration was determined by Bradford assay using BSA as a standard (Bradford, 1976). […]
(§1) For determination of specific activities, reactions (100 μl) were performed in 0.1 M potassium phosphate, pH 7.4, 10% (w/v) sucrose, 14 mM β-mercaptoethanol with 0.2-μg protein, 50 μM S-adenosyl-L-methionine (0.025 μCi ^14C-SAM per reaction), and 100 μM substrate. Reactions were incubated at 30° C. for 15-25 min and stopped by addition of 4 μl of 1N HCl. Products were extracted into 500 μl of ethyl acetate and 400 μl was used for liquid scintillation counting.

[2] = system: MtIOMT4; experiment: OMT assays with purified recombinant MtIOMT4 (relative activity; HPLC of products); details: for Relative activity, MtIOMT4: 50 μM S-adenosyl methionine, 100 μM acceptor substrate, most converted substrate = 100%
Excerpt: (§2) Cloning of MtIOMT5 (corresponding to TC 100926, TIGR MtGI v.8) was as described previously (Liu et al., 2005). To obtain a full-length cDNA for MtIOMT2, specific primers designed based upon the M. truncatula genomic sequence were used to amplify the MtIOMT2 coding sequence from M. truncatula root cDNA. The amplified product was cloned into the pGEM®-T easy vector (Promega, Madison Wis.) and sequenced to confirm its identity. MtIOMTs were cloned into the pET28a vector (EMD Biosciences, Inc., San Diego, Calif.) using PCR-based amplification with primers designed to introduce EcoRI and XhoI restriction sites; BamHI and XhoI sites were used for cloning MtIOMT6 due to the presence of an internal EcoRI site in this particular cDNA. Because the EST for MtIOMT8 was missing a start codon, the primer designed to clone MtIOMT8 into pET28a contained an additional 2-nucleotide insertion to generate an ATG start site. All MtIOMTs were expressed as translational fusions to an N-terminal His-tag. Expression of MtIOMTs in E. coli BL21(DE3) and purification by Ni^2+-NTA chromatography were as described (Zubieta et al., 2001). Proteins were dialyzed against 20 mM Tris pH 8.0, 100 mM NaCl, 10% (v/v) glycerol, and 14 mM β-mercaptoethanol. Protein concentration was determined by Bradford assay using BSA as a standard (Bradford, 1976).
(§3) Reactions (200 μl) were performed in 0.1 M potassium phosphate, pH 7.4, 10% (w/v) sucrose, 14 mM β-mercaptoethanol with 10 μM protein, 0.5 mM S-adenosyl-L-methionine, and 80 μM phenolic substrates. All substrates were purchased from Indofine (Hillsborough, N.J.) except 6,7-dihydroxy-4′-methoxyisoflavone, dihydrodaidzein, and vestitol, which were purchased from Apin (Oxfordshire, UK). […] OMT assays were incubated at 30° C. for 2 h and extracted with ethyl acetate. Ethyl acetate extracts were dried under N2 and the resultant material was resuspended in 50-100 μl of methanol. Samples were analyzed on an Agilent 1100 HPLC, equipped with a quaternary pump (model #G1311A), a degasser (model #G1322A), an autosampler (model #G1313A), and a diode array detector (model #G1315A). Samples of 20 μl were applied to an ODS2 reverse-phase column (5 μm particle size, 4.6×250 mm) and eluted in 1% (v/v) phosphoric acid with an increasing gradient of acetonitrile (0-5 min, 25%; 5-35 min, 25-50%; 35-39 min, 50-100%) at a flow rate of 1 ml/min. To resolve the 4′-O-methylated and 7-O-methylated products of genistein, samples were applied to a Phenomenex SYNERGI Polar-RP 80 Å column (4 μm particle size, 4.6×250 mm) and eluted in water with an increasing gradient of acetonitrile (0-5 min, 20%; 5-17 min, 20-38%; 17-33 min, 38%; 33-45 min, 38-56%; 45-46 min, 56-100%) at a flow rate of 1 ml/min. Chiral chromatography was performed as described (Liu et al., 2005).
as §1, with “counting. […]” for “counting.”

[3] = system: MtIOMT7; experiment: OMT assays with purified recombinant MtIOMT7 (relative activity; HPLC/MS of products); details: for Relative activity, MtIOMT7: 50 μM S-adenosyl methionine, 100 μM acceptor substrate, most converted substrate = 100%
Excerpt: as §2, §3, §1
An HP 1100 series II LC system (Hewlett-Packard, Palo Alto, Calif.) with a photodiode array detector was coupled to a Bruker Esquire ion-trap mass spectrometer (ITMS) equipped with an electrospray ionization source. A reverse phase, C18, 5 μm, 4.6×250 mm column (J. T. Baker, Phillipsburg, N.J.) was used for separations. The mobile phase consisted of 0.1% (v/v) acetic acid using linear gradients of 5-90% acetonitrile (v/v) in 70 min. The flow rate was 0.8 ml/min, and the temperature of the column was kept at 28° C. Both positive- and negative-ion mass spectra were acquired.

Row | Compound | Relative activity, MtIOMT1 [1] | Fold by which relative initial activity with glycitein is higher than with this substrate ([1]; MtIOMT1, saturating concentration of glycitein) | Relative activity, MtIOMT4 [2] | Relative activity, MtIOMT7 [3] | Activity of MtIOMT4 (in words) [2] | Fold reduction of activity compared with 6,7,4′-trihydroxyisoflavone ([1]; MtIOMT1, methylation of the 4′-hydroxyl group) | Amount of substrate methylated after 2 h ([3]; MtIOMT7, 2 h)
1 | O=c1c(-c2ccc(O)cc2)coc2cc(O)ccc12 [Daidzein] | 20.6% | 5 fold | 0% | 0% |  |  | 
2 | COc1cc2c(=O)c(-c3ccc(O)cc3)coc2cc1O [Glycitein] | 100% |  | 0% | ≦1% |  |  | 
3 | O=c1oc2cc(O)ccc2c2oc3cc(O)ccc3c12 [Coumestrol] | 0% |  | 100% | 1.5% | low level, trace activity |  | 
4 | O=c1c(-c2ccc(O)cc2)coc2cc(O)c(O)cc12 [6,7,4′-trihydroxyisoflavone] | 43.9% |  | 0% | 0% |  |  | 
5 | COc1ccc(-c2coc3cc(O)c(O)cc3c2=O)cc1 [6,7-dihydroxy,4′-methoxyisoflavone] | ≦1% |  | 0% | 0% |  | more than 80 fold | 
6 | O=C1C[C@@H](c2ccc(O)cc2)Oc2cc(O)cc(O)c21 [Naringenin] | 0% |  | 0% | 100% |  |  | Almost all
7 | O=c1c(-c2ccc(O)c(O)c2)coc2cc(O)ccc12 [7,3′,4′-trihydroxyisoflavone] | 40.8% |  | 0% | ≦1% |  |  | 
8 | O=C1c2ccc(O)cc2OCC1c1ccc(O)cc1 (centres unmarked) [Dihydrodaidzein] | 15.6% |  | 0% | 84.1% |  |  | 
9 | O=c1cc(-c2ccc(O)cc2)oc2cc(O)cc(O)c12 [Apigenin] | 0% |  | 0% | 0% |  |  | 
10 | O=c1cc(-c2ccc(O)cc2)oc2cc(O)ccc12 [7,4′-dihydroxyflavone] | 0% |  | 0% | 0% |  |  | 
11 | O=c1c(-c2ccc(O)cc2)coc2cc(O)cc(O)c12 [Genistein] | 49.2% |  | 0% | 0% |  |  | 
12 | COc1ccc(C2COc3cc(O)ccc3C2)c(O)c1 (centres unmarked) [Vestitol] | 0% |  | 43.8% | 3.4% | low level, trace activity |  | 
13 | O=c1c(O)c(-c2cc(O)c(O)c(O)c2)oc2cc(O)cc(O)c12 [Myricetin] | 0% |  | 0% | 0% |  |  | 
